These are literature values, as cited in patent US20240226080A1, “Pharmaceutical Mixture Comprising Amorphous Pitolisant” (Alfred E. Tiefenbacher GmbH & Co. KG, priority 2022, published 2024).

For series [1] the following is noted: 23° C.; listed as oxalate salt.
The conditions of series [2]: for Solubility (% w/v) Water room T: room temperature.

Counter-ions that a name gives are not always drawn.

For the compound `Clc1ccc(CCCOCCCN2CCCCC2)cc1` [Hydrogen oxalate, 1-[3-[3-(4-chlorophenyl)propoxy]propyl]-piperidine], in series [1], the aqueous solubility was 25 mg/mL. Moreover, in series [2], the “Solubility (% w/v) pH 4.5” value is given as 1-3 % w/v, the “Solubility (% w/v) pH 7.4” value is on record as 3-10 % w/v and the “Solubility (% w/v) Water room T” value is listed as 1-3 % w/v.

As for `Clc1ccc(CCCOCCCN2CCCCC2)cc1` [Monohydrochloride, 1-[3-[3-(4-chlorophenyl)propoxy]propyl]-piperidine], in series [2], the “Solubility (% w/v) pH 4.5” value is above 100 % w/v, the “Solubility (% w/v) pH 7.4” value is above 100 % w/v and the “Solubility (% w/v) Water room T” value is reported as above 100 % w/v.
